Columns and labels:
[1] = molecular target: T1, human TLR7 (Homo sapiens, UniProt Q9NYK1); assay: TLR7 inhibition reporter assay (HEK-Blue SEAP); format: cell-based; settings: HEK-Blue cells overexpressing human TLR7, gardiquimod 7.5 μM, 22 hour incubation
T1 construct: host or cells: HEK-Blue cells
T1 sequence (Q9NYK1 27-1049): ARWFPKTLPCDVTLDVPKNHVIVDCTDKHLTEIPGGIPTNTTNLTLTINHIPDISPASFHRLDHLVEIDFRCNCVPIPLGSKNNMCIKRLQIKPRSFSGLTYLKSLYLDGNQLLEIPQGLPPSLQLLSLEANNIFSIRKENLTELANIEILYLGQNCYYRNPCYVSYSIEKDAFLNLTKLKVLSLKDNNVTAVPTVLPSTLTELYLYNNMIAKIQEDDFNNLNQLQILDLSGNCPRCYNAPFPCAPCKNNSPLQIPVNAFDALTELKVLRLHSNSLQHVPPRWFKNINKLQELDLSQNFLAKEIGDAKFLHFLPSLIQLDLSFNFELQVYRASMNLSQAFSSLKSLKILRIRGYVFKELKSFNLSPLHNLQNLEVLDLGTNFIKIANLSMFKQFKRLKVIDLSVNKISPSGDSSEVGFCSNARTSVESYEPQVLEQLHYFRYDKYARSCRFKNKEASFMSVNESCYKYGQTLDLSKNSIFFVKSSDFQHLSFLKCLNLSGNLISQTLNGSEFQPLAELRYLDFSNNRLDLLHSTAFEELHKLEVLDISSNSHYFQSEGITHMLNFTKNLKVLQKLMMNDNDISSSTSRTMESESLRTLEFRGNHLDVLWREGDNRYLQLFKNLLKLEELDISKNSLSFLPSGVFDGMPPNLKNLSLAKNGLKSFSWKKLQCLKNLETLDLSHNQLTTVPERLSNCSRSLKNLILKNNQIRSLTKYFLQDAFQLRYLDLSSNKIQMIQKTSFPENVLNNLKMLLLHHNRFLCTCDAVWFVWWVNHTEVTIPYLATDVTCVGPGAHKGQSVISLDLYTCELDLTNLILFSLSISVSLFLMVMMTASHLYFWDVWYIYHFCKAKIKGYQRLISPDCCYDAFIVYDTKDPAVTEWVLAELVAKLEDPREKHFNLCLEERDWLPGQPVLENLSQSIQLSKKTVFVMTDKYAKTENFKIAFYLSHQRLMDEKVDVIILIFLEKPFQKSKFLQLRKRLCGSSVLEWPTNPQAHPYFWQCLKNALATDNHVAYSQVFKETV
Method in brief: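 Dose-response testing from 0.05 nM to 50 μM final was done on reporter cells for 22 hours at 37° C. Secreted SEAP was then detected, and inhibition was calculated as percent reduction of the agonist-plus-DMSO signal compared with wells given a known inhibitor.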

[2] = molecular target: T2, human TLR8 (Homo sapiens, UniProt Q9NR97); assay: TLR8 inhibition reporter assay (HEK-Blue SEAP); format: cell-based; settings: HEK-Blue cells overexpressing human TLR8, R848 15.9 μM, 22 hour incubation
T2 construct: host or cells: HEK-Blue cells
T2 sequence (Q9NR97 27-1041): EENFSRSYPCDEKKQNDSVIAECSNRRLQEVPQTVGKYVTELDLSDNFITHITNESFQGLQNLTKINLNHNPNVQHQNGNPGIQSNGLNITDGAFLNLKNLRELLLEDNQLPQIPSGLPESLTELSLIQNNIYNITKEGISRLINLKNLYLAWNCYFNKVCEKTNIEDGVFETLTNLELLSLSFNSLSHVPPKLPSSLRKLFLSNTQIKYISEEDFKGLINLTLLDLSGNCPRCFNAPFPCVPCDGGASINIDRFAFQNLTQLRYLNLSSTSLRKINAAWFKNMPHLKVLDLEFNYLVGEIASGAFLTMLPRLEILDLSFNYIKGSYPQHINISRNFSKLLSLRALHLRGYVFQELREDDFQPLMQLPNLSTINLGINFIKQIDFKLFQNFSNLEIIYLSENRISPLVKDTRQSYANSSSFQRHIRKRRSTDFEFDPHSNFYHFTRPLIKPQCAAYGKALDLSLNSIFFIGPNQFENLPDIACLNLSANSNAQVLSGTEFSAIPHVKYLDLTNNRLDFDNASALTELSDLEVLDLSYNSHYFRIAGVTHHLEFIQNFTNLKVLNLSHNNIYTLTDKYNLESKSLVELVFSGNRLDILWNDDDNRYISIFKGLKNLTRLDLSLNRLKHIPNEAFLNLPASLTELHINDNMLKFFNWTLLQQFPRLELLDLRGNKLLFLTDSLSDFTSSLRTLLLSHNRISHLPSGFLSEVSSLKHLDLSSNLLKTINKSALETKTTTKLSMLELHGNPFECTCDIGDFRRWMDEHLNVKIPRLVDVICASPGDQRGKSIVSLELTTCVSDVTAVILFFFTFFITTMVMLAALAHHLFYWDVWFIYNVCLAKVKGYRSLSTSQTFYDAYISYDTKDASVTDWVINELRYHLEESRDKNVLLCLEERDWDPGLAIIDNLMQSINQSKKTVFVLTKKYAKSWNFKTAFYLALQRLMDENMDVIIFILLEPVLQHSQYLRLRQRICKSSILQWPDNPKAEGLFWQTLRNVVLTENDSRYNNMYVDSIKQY
Method in brief: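 Screening used HEK-Blue cells overexpressing one human TLR (7, 8 or 9) and an IFN-β minimal promoter–NF-κB/AP-1 SEAP construct. Stimulation lasted 22 h at 37 °C with receptor-specific agonist: gardiquimod, R848 or ODN2006 at 7.5 μM, 15.9 μM and 5 nM.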

- IC50 [1]: 0.119 µM
- IC50 [2]: 0.0815 µM
Compound: COc1cc(-c2cc3[nH]c(=O)n(C4CCC(N5CCNC(=O)C5)CC4)c3cc2C(C)C)cn2ncnc12 (centres unmarked) [Example 243, 6-isopropyl-5-(8-methoxy-[1,2,4]triazolo[1,5-a]pyridin-6-yl)-1-(4-(3-oxopiperazin-1-yl)cyclohexyl)-1,3-dihydro-2H-benzo[d]imidazol-2-one]
